According to patent US20210267989A1, “Novel Compounds for the Treatment, Alleviation or Prevention of Disorders Associated with Tau Aggregates” (AC Immune SA, priority 2018, published 2021):

How the values were obtained:
[1] = target: T1, recombinant full-length (fl)Tau aggregates (longest isoform of human Tau, 2N4R; 441 amino acids) (Homo sapiens, UniProt P10636); test: Full-length Tau (flTau) disaggregation assay by Thioflavin T (ThT); format: biochemical; conditions: ThT fluorescence; 2 μM flTau aggregates, 30 minutes at RT
T1 construct: 35 μM of recombinant full-length (fl)Tau in PBS were aggregated for 24 hours; made in house; host or cells: bacteria
Description: Full-Length Tau (flTau) Disaggregation Assay by Thioflavin T (ThT)
The longest isoform of human Tau (2N4R; 441 amino acids) was expressed in bacteria and purified. For the Tau disaggregation assay by ThT, 35 μM of recombinant full-length (fl)Tau in PBS were aggregated for 24 hours at 37° C. in presence of 50 μM of heparin (Sigma-Aldrich) and 10 mM of DTT (Sigma-Aldrich) under shaking at 750 RPM. Compounds were dissolved in anhydrous dimethyl sulfoxide (DMSO, Sigma-Aldrich) to reach a concentration of 10 mM. flTau aggregates and serial dilutions of compounds were mixed together in PBS (volume 50 μL) to a final concentration of 2 μM of flTau aggregates and from 160 to 0.04 μM of compounds. The mixture was incubated for 30 minutes at room temperature (RT), then 40 μL of this mixture were transferred into a black 384-well plate assay (Perkin-Elmer) and mixed with 10 μL of 100 μM ThT in 250 mM glycine (both from Sigma-Aldrich) in PBS. Fluorescence (relative fluorescence units; RFU) was measured in monoplicate or duplicate on a Tecan reader (excitation: 440 nm; emission: 485 nm). Percentage of flTau disaggregation was then calculated and the half maximal effective concentration (EC50) was determined using GraphPad Prism version 5 (GraphPad Software) assuming a one-binding site fitting model.

[2] = target: T2, Aggregated human Tau in human neuroblastoma cell line overexpressing full-length human Tau P301L (Homo sapiens, UniProt P10636, P618L); test: Reduction of intracellular Tau aggregation (AlphaLISA, aggregated Tau normalized to total Tau); format: cell-based; conditions: compound at 5 μM, 24 h, relative to DMSO-treated cells
T2 construct: overexpressing the full-length form of human Tau carrying the P301L mutation; expressed in transfected cells; host or cells: human neuroblastoma cell line (G418 selection)
Description: Reduction of Intracellular Tau Aggregation
A human neuroblastoma cell line overexpressing the full-length form of human Tau carrying the P301L mutation was cultured in complete medium [DMEM-F12 4.5 g/L Glutamax (Invitrogen), 15% FBS (Biochrom), 1% Peni/Strep (Invitrogen) supplemented with 2.5 μg/ml of G418 (Sigma-Aldrich) selection antibiotic]. The day before the experiment 5×10^5 cells/well were plated in a 6 well plate in 3 mL of complete medium. The next day, cells were incubated with DMSO or a compound of the present invention at 5 μM for additional 24 h at 37° C. After incubation, cells were trypsinized, resupsended in 100 μl of homogenization buffer [25 mM Tris-HCl pH 7.4, 150 mM NaCl, 1 mM EDTA, 1 mM EGTA containing phosphatase inhibitors (30 mM NaF, 0.2 mM Na3VO4, 1 nM okadaic acid, 1 mM PMSF, 5 mM Na4P2O7) and protease inhibitor cocktail (Complete™, Roche)], and then physically lysed with three rapid cycles of freezing and thawing. Samples were then directly tested in the AlphaLISA assay.
Phosphorylated, aggregated, and total Tau were quantified by AlphaLisa using the following antibody pairs: • HT7-Acceptor beads+biotin (BT)-Tau13-Donor beads: Total Tau • HT7-Acceptor beads+biotin (BT)-HT7-Donor beads: Aggregated human Tau
The Tau13 (Abcam) was biotinylated using EZ-Link® NHS-PEO Solid Phase biotinylation kit (Thermo Scientific), while the HT7-biotin was from a commercial source (Thermo Scientific).
For each antibody pairs the concentration of acceptor beads and biotinylated antibodies was optimized. All samples were first tested in a dilution series in PBS in order to identify the linear range and optimal dilution for each sample and assay. For the final protocol, the following reagents were added in a 384-well white OptiPlate (PerkinElmer): • 5 μL of test diluted sample • 20 μL of the mixture biotin-mAb acceptor beads at the following final concentrations: • HT7-BT at 1.25 nM in combination with HT7-Acc beads at 10 μg/ml • Tau13-BT at 5 nM in combination with HT7-Acc beads at 2.5 μg/ml
After incubation of this mixture at room temperature for 1 h, 25 μL of Streptavidin Donor beads (Perkin Elmer) at 25 μg/mL were added in the dark. Plates were analyzed after 30 min incubation using the EnSpire Alpha instrument and EnSpire Workstation version 3.00. Data for aggregated Tau were normalized to total Tau and then expressed as percentage of the DMSO-treated cells.

[3] = target: T3, Tau K18 fragment aggregates (amino acids 244 to 372 of human Tau441) (Homo sapiens, UniProt P10636); test: Tau K18 disaggregation assay by ThT; format: biochemical; conditions: ThT fluorescence; 2 μM K18 aggregates, 30 minutes at RT
T3 construct: encompassing amino acids 244 to 372 of the longest isoform (2N4R) of human Tau441; host or cells: bacteria
Description: Tau K18 Disaggregation Assay by ThT
The Tau K18 fragment, encompassing amino acids 244 to 372 of the longest isoform (2N4R) of human Tau441, was expressed in bacteria and purified or bought from SignalChem. For the K18 disaggregation assay by ThT, 35 μM of recombinant K18 in PBS were aggregated for 24 hours at 37° C. in presence of 50 μM of heparin (Sigma-Aldrich) and 10 mM of DTT (Sigma-Aldrich) under shaking at 750 RPM. Compounds were dissolved in anhydrous dimethyl sulfoxide (DMSO, Sigma-Aldrich) to reach a concentration of 10 mM. K18 aggregates and serial dilutions of compounds were mixed together in PBS (volume 50 μL) to a final concentration of 2 μM of K18 aggregates and from 160 to 0.04 μM of compounds. The mixture was incubated for 30 minutes at room temperature (RT), then 40 μL of this mixture were transferred into a black 384-well plate assay (Perkin-Elmer) and mixed with 10 μL of 100 μM ThT in 250 mM glycine (both from Sigma-Aldrich) in PBS. Fluorescence (relative fluorescence units; RFU) was measured in monoplicate or duplicate on a Tecan reader (excitation: 440 nm; emission: 485 nm). Percentage of K18 disaggregation was then calculated and half maximal effective concentration (E050) was determined using GraphPad Prism version 5 (GraphPad Software) assuming a one-binding site fitting model.

[4] = target: T4, monomeric flTau (human Tau 2N4R; 441 amino acids) (Homo sapiens, UniProt P10636); test: Full-length Tau inhibition of aggregation assay by ThT (seeded with AD brain PHF); format: biochemical; conditions: 4 μM monomeric flTau + AD brain PHF 1:200, 72 h at 37° C.
T4 construct: purchased Biotechne (USA); host or cells: E coli
Description: Full-Length Tau (fIT) Inhibiton of Aggregation Assay by ThT
The isoform of human Tau (2N4R; 441 amino acids) was purchased from Biotechne (USA). The protein was expressed in bacteria E coli, purified and concentrated in PBS to a final concentration of 50 μM.
To induce Tau aggregation, 4 μM of monomeric flTau was incubated for 72 hours at 37° C. under agitation cycles consisting of both orbital shaking and mixing function using the Hula Mixer (Life Technologies) with Tau paired-helical filaments (PHF) enriched from the post-mortem brain of one Alzheimer's disease (AD) patient obtained from an external source (Tissue Solutions) diluted 1:200. The enrichment procedure was modified from Jicha et al, 1997 (Journal of Neuroscience Research 48:128-132 (1997)) and Rostagno and Ghiso, 2009 (Current protocols in cell biology (2009), Chapter 3, Unit 3.33 3.33.1-33). […]
To test the capability of compounds of this invention to inhibit Tau aggregation, serial dilution of compounds in DMSO were added to the monomeric flTau/PHF mix prior incubation. […] Fluorescence was measured in monoplicate on a Tecan reader Spark using filter (excitation at 448 nm/BW 7 nm, emission at 485 nm/BW 20 nm). A dose response type of curve was obtained out to two independent experiments each with technical duplicates and the IC50 was calculated using GraphPad Prism 7.03.

T3 sequence (P10636 561-689): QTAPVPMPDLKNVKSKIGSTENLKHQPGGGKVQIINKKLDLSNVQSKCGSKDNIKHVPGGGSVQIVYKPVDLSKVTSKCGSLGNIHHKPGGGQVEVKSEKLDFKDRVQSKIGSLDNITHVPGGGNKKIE
T2 sequence (P10636 1-441 isoform P10636-8 P301L): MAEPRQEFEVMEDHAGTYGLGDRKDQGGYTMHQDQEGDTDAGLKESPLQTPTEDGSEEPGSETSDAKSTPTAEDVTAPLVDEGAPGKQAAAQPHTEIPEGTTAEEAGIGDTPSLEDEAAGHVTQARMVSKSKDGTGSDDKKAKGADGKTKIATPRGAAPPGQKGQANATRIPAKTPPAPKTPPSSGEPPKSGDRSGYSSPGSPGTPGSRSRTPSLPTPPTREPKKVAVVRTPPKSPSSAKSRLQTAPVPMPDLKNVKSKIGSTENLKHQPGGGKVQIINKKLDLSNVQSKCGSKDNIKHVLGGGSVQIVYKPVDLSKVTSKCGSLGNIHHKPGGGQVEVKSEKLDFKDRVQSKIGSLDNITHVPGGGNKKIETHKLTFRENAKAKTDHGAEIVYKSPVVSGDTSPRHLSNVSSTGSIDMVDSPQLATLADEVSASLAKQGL
T4 sequence (P10636 1-441 isoform P10636-8): as the sequence (P10636 1-441 isoform P10636-8 P301L) above, with L301P counted along it
T1 sequence (P10636 1-441 isoform P10636-8): as the sequence (P10636 1-441 isoform P10636-8 P301L) above, with L301P counted along it

Row | SMILES | EC50 [1] [µM] | % Reduction of intracellular Tau aggregation [2] | EC50 [3] [µM] | IC50 [4] [µM]
1 | c1ccc2c3c([nH]c2c1)CN(c1ccc(N2CCOCC2)nc1)CC3 [Example 44] | – | +++ (+++ % > 50) | < 10 | 0.39
2 | Cn1c2c(c3ccccc31)CCN(c1ccc(N3CCOCC3)cn1)C2 [Example 45] | – | ++ (++ % 50 < x < 25) | < 10 | –
3 | Cn1c2c(c3ccccc31)CCN(c1ccc(N3CCOCC3)nc1)C2 [Example 46] | – | ++ (++ % 50 < x < 25) | < 10 | 1.2

The next lines start with results.

Row | EC50 [1] [µM] | % Reduction of intracellular Tau aggregation [2] | SMILES | EC50 [3] [µM] | IC50 [4] [µM]
4 | < 10 | + (+ % 25 < x < 10) | CN(C)c1nc2ccc(N3CCc4c(n(C)c5ccc(F)cc45)C3)cc2o1 [Example 12] | – | –
5 | – | + (+ % 25 < x < 10) | COc1ccc2c(c1)c1c(n2C)CN(c2ccc3oc(N(C)C)nc3c2)CC1 [Example 21] | < 10 | –
6 | – | + (+ % 25 < x < 10) | c1ccc2c3c([nH]c2c1)CN(c1ccc2nc(N4CCOCC4)sc2c1)CC3 [Example 38] | < 10 | –
7 | – | ++ (++ % 50 < x < 25) | c1ccc2c3c([nH]c2c1)CN(c1ccc(N2CCOCC2)cn1)CC3 [Example 43] | < 10 | –
